From PubChem BioAssay (NCI) come the findings set out here.

Some test systems named below: TK-10 renal; HCC-2998 colon; OVCAR-5 ovarian; SW-620 colon; OVCAR-8 ovarian; SR leukemia; U251 CNS; RPMI-8226 leukemia; SF-268 CNS; K-562 leukemia.
Test in all cases: DTP human tumour cell line panel, 48 h

Structures are written as SMILES.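 Exposure lasted 48 hours, with cells grown in 96-well plates and compounds tested at five concentrations. GI50: concentration for 50% inhibition of growth. TGI: total growth inhibition.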 Bounds are passed on as bounds.

Consider `CCCCC(=O)c1c(O)nc2sccn2c1=O`, for which the TGI in the experiment on TK-10 renal, in the experiment with HCC-2998 colon, in the experiment with OVCAR-5 ovarian, in the experiment with SW-620 colon, in the experiment with OVCAR-8 ovarian and in the experiment with SR leukemia was greater than 10 µM each time. For the same compound, the TGI in the experiment on U251 CNS, with RPMI-8226 leukemia and in the experiment with SF-268 CNS was greater than 10 µM in each case.

As to `NS(=O)(=O)c1ccc(/C=C/c2ccc(F)cc2)cc1`, the TGI (commonly the concentration giving total growth inhibition) in the experiment on TK-10 renal is greater than 100 µM; in the experiment on HCC-2998 colon, greater than 100 µM; in the experiment on OVCAR-5 ovarian it was greater than 100 µM; in the experiment on SW-620 colon, greater than 100 µM; in the experiment with OVCAR-8 ovarian it was 30 µM; in the experiment with SR leukemia it was greater than 100 µM. Besides, the TGI is 45.7 µM with U251 CNS, greater than 100 µM with RPMI-8226 leukemia, greater than 100 µM in the experiment with K-562 leukemia and greater than 100 µM in the experiment with SF-268 CNS. In addition, the GI50 (as a rule, the concentration that inhibits growth by half) in the experiment with OVCAR-8 ovarian is 15.2 µM; with SR leukemia, 10.5 µM; in the experiment on U251 CNS, 7.93 µM; in the experiment on RPMI-8226 leukemia, 42.3 µM; in the experiment on K-562 leukemia it was 14.9 µM; with SF-268 CNS, 20.5 µM.

Take `CN(C)c1ccc(/C(F)=C(F)/C(F)=C(F)/C(F)=C(\F)c2ccc(Br)cc2)cc1`: the TGI in the experiment on TK-10 renal was greater than 100 µM; with HCC-2998 colon it was greater than 100 µM; in the experiment on OVCAR-5 ovarian, greater than 100 µM; with SW-620 colon, greater than 100 µM; in the experiment on OVCAR-8 ovarian, greater than 96 µM; in the experiment on SR leukemia it was greater than 100 µM. In addition, the TGI is 44.7 µM with U251 CNS, greater than 100 µM in the experiment with RPMI-8226 leukemia, greater than 100 µM with K-562 leukemia and greater than 100 µM in the experiment with SF-268 CNS.

As to `O=C(N/N=C/C=C/c1ccc([N+](=O)[O-])o1)c1cc2ccccc2cc1O`, the GI50 is 2.44 µM with TK-10 renal; 1.31 µM in the experiment on HCC-2998 colon; 3.35 µM in the experiment with OVCAR-5 ovarian; 1.05 µM with SW-620 colon; 1.45 µM with OVCAR-8 ovarian; 0.308 µM in the experiment with SR leukemia. Moreover, the GI50 in the experiment on U251 CNS is 1.42 µM; in the experiment with RPMI-8226 leukemia, 1.53 µM; with K-562 leukemia it was 0.632 µM; in the experiment on SF-268 CNS, 1.43 µM. The TGI is 8.13 µM with TK-10 renal; 2.59 µM with HCC-2998 colon; 10.7 µM in the experiment on OVCAR-5 ovarian; 3.05 µM in the experiment on SW-620 colon; 21.7 µM with OVCAR-8 ovarian; 7.69 µM in the experiment with SR leukemia. Besides, the total growth inhibition concentration (TGI) in the experiment on U251 CNS was 4.16 µM; with RPMI-8226 leukemia it was 6.83 µM; with K-562 leukemia, 9.53 µM; in the experiment on SF-268 CNS, 7.43 µM.

As to `Cc1ccc(OCC2OC(n3cnc4c(Cl)nc(N)nc43)CC2Oc2ccc(C)cc2)cc1` (stereo not given), the TGI with TK-10 renal was greater than 100 µM; with HCC-2998 colon, greater than 57.4 µM; with OVCAR-5 ovarian it was greater than 100 µM; in the experiment on SW-620 colon it was greater than 100 µM; in the experiment on OVCAR-8 ovarian, greater than 100 µM; in the experiment with SR leukemia, greater than 100 µM. The TGI with U251 CNS, in the experiment on RPMI-8226 leukemia, in the experiment on K-562 leukemia and with SF-268 CNS was greater than 100 µM throughout.

Consider `COc1ccc2c3c1OC1C(=O)C=CC4(CC2)N(C)CCC314` (stereo not given), for which the TGI in the experiment on TK-10 renal was greater than 100 µM; in the experiment on HCC-2998 colon, 27.4 µM; in the experiment with OVCAR-5 ovarian, 92.4 µM; with SW-620 colon, greater than 100 µM; in the experiment with OVCAR-8 ovarian, greater than 100 µM; in the experiment with SR leukemia, 33.7 µM. For the same compound, the TGI is 53 µM in the experiment with U251 CNS, 45.6 µM with RPMI-8226 leukemia, greater than 100 µM with K-562 leukemia and 91 µM with SF-268 CNS.

In the case of `O=S(=O)(c1ccc(NC2=NC(c3ccc(O)cc3)(c3ccccc3O)c3ccccc32)cc1)c1ccc(NC2=NC(c3ccc(O)cc3)(c3ccccc3O)c3ccccc32)cc1` (stereo not given), the TGI was greater than 100 µM in the experiment with TK-10 renal; 15.4 µM in the experiment on HCC-2998 colon; greater than 73.6 µM in the experiment with OVCAR-5 ovarian; greater than 100 µM in the experiment with SW-620 colon; greater than 40.7 µM with OVCAR-8 ovarian; greater than 49.6 µM with SR leukemia. Also, the TGI in the experiment with U251 CNS is greater than 100 µM; with RPMI-8226 leukemia, greater than 100 µM; with K-562 leukemia it was greater than 100 µM; in the experiment on SF-268 CNS, greater than 44.5 µM.

In the case of `N#CC1(C#N)NC(c2cccs2)C(C#N)(C#N)NC1c1cccs1` (stereo not given), the TGI in the experiment with TK-10 renal is greater than 100 µM; in the experiment on HCC-2998 colon it was 93.3 µM; in the experiment with OVCAR-5 ovarian, 92.6 µM; in the experiment on SW-620 colon, greater than 100 µM; with OVCAR-8 ovarian it was greater than 100 µM; in the experiment with SR leukemia it was 77.3 µM. Also, the TGI was 64.5 µM in the experiment on U251 CNS, 73.1 µM in the experiment on RPMI-8226 leukemia, 56.3 µM with K-562 leukemia and greater than 100 µM with SF-268 CNS.

Consider `O=C1C(Cl)=C(OCCCl)C(=O)c2c(O)ccc(O)c21`, for which the TGI in the experiment on TK-10 renal is 7.76 µM; in the experiment with HCC-2998 colon it was 35.4 µM; in the experiment with OVCAR-5 ovarian, 31.6 µM; in the experiment on SW-620 colon it was 9.9 µM; in the experiment with OVCAR-8 ovarian, 47.6 µM; in the experiment with SR leukemia, 0.397 µM. Further, the TGI in the experiment on U251 CNS amounted to 27.9 µM; in the experiment with RPMI-8226 leukemia, 0.993 µM; in the experiment on K-562 leukemia it was 1.08 µM; in the experiment on SF-268 CNS, 17.1 µM.

On to `COc1ccc(C2=Nc3cc(C)c(C)cc3NC(c3ccccc3)C2)cc1` (stereo not given), for which the total growth inhibition concentration (TGI) in the experiment with TK-10 renal was greater than 100 µM; in the experiment with HCC-2998 colon, greater than 100 µM; in the experiment with OVCAR-5 ovarian, greater than 100 µM; in the experiment on SW-620 colon, greater than 100 µM; with OVCAR-8 ovarian, greater than 100 µM; in the experiment with SR leukemia it was 54.5 µM. Moreover, the TGI with U251 CNS, in the experiment with RPMI-8226 leukemia, in the experiment on K-562 leukemia and in the experiment on SF-268 CNS was greater than 100 µM each time.

In the case of `COc1c(O)c(C=O)c2c(O)c(-c3c(C)cc4c(C(C)C)c(OC)c(O)c(C=O)c4c3O)c(C)cc2c1C(C)C`, the total growth inhibition concentration (TGI) with TK-10 renal came out at 19.3 µM; in the experiment with HCC-2998 colon it was 5.34 µM; in the experiment with OVCAR-5 ovarian, 20.7 µM; in the experiment on SW-620 colon, 17.7 µM; in the experiment with OVCAR-8 ovarian it was 16.4 µM; with SR leukemia, 22.7 µM. The TGI with U251 CNS was 12.2 µM; in the experiment with RPMI-8226 leukemia, 22.4 µM; with K-562 leukemia, greater than 100 µM; in the experiment on SF-268 CNS, 23.5 µM.

Consider `Cc1ccc2c(=O)cc(-c3ccc(Cl)s3)[nH]c2n1`, for which the TGI in the experiment on TK-10 renal was greater than 100 µM; with HCC-2998 colon, 25.9 µM; with OVCAR-5 ovarian it was greater than 100 µM; in the experiment with SW-620 colon it was greater than 100 µM; in the experiment with OVCAR-8 ovarian it was greater than 53.8 µM; with SR leukemia, greater than 76.2 µM. Moreover, the TGI was greater than 100 µM with U251 CNS, 4.08 µM in the experiment on RPMI-8226 leukemia, greater than 100 µM with K-562 leukemia and greater than 81.6 µM with SF-268 CNS.
